How the values were obtained:
[1] = system: antibodies in sera from SARS patients (sera 1a, 1b, 2, 6, 37, 62, London, SARS-yellow, SARS-green); format: binding, human; design: Binding of serum 6 to linear peptides of protein X1 of SARS-CoV Urbani / Binding of serum 37 to linear peptides of protein X1 of SARS-CoV Urbani / Binding of serum 6 to looped/cyclic peptide (PEPSCAN-ELISA) / Binding of serum 37 to looped/cyclic peptide (PEPSCAN-ELISA) / Binding of serum 37 to looped/cyclic peptides of protein X1 of SARS-CoV Urbani / Binding of serum 6 to linear peptides of protein X2 / Binding of serum 37 to linear peptides of protein X2 / Binding of serum 37 to looped/cyclic peptides of protein X2 of SARS-CoV Urbani / Binding of serum 6 to linear peptides of protein M of SARS-CoV Urbani / Binding of serum 37 to linear peptides of protein M of SARS-CoV Urbani / Binding of serum 6 to looped/cyclic peptides of protein M of SARS-CoV Urbani / Binding of serum 37 to looped/cyclic peptides of protein M of SARS-CoV Urbani / Binding of serum 6 to linear peptides of protein X3 of SARS-CoV Urbani / Binding of serum 37 to linear peptides of protein X3 of SARS-CoV Urbani / Binding of serum 37 to looped/cyclic peptides of protein X3 of SARS-CoV Urbani / Binding of serum 6 to linear peptides of protein X4 of SARS-CoV Urbani / Binding of serum 37 to linear peptides of protein X4 of SARS-CoV Urbani / Binding of serum 37 to looped/cyclic peptides of protein X4 of SARS-CoV Urbani / Binding of serum 6 to linear peptides of protein X5 of SARS-CoV Urbani / Binding of serum 37 to linear peptides of protein X5 of SARS-CoV Urbani / Binding of serum 37 to looped/cyclic peptides of protein X5 of SARS-CoV Urbani / Binding of serum 6 to linear peptides of protein N of SARS-CoV Urbani / Binding of serum 37 to linear peptides of protein N of SARS-CoV Urbani / Binding of serum 6 to linear peptide (PEPSCAN-ELISA) / Binding of serum 1a to looped/cyclic peptides of protein N of SARS-CoV Urbani / Binding of serum 1b to looped/cyclic peptides of protein N of SARS-CoV Urbani / Binding of serum 2 to looped/cyclic peptides of protein N of SARS-CoV Urbani / Binding of serum 6 to looped/cyclic peptides of protein N of SARS-CoV Urbani / Binding of serum 37 to looped/cyclic peptides of protein N of SARS-CoV Urbani / Binding of serum 62 to looped/cyclic peptides of protein N of SARS-CoV Urbani / Binding of serum London to looped/cyclic peptides of protein N of SARS-CoV Urbani / Binding of serum SARS-green to looped/cyclic peptides of protein N of SARS-CoV Urbani: unit not given here
[2] = system: control sera (pooled serum of ten healthy LUMC hospital workers; commercial negative donor pooled serum from the Dutch bloodbank); format: binding, human; design: Binding of Control serum LUMC to linear peptides / Binding of Control serum Blood-bank to linear peptides / Binding of Control serum LUMC to looped peptides / Binding of Control Serum Blood-Bank to Looped peptides / Binding of Control serum LUMC to linear peptides of the protein M of SARS-CoV Urbani / Binding of Control serum Blood-bank to linear peptides of the protein M of SARS-CoV Urbani / Binding of Control serum LUMC to looped peptides of the protein M of SARS-CoV Urbani / Binding of Control Serum Blood-Bank to Looped peptides of the protein M of SARS-CoV Urbani: unit not given here
[3] = system: rabbit serum obtained by immunizing a rabbit with the SARS-CoV strain Frankfurt 1; format: binding; design: Binding of a rabbit serum to linear peptides / Binding of a rabbit serum to looped peptides / Rabbit serum linear peptides / Rabbit serum looped peptides / Binding of a rabbit serum to linear peptides of protein N of SARS-CoV Urbani (Rabbit serum linear peptides) / Binding of a rabbit serum to looped/cyclic peptides of protein N of SARS-CoV Urbani (Rabbit serum looped peptides): unit not given here
[4] = system: recombinant human anti-SARS-CoV antibody 03-018; format: binding; design: Binding of antibody 03-018 to linear peptides of the N protein of SARS-CoV Urbani / Binding of antibody 03-018 to looped/cyclic peptides of the N protein of SARS-CoV Urbani: unit not given here

Row | Sequence | Binding of serum 1a to linear peptides of protein N of SARS-CoV Urbani [1] | Binding of serum 1a to looped/cyclic peptides of protein N of SARS-CoV Urbani [1] | Binding of serum 1b to linear peptides of protein N of SARS-CoV Urbani [1] | Binding of serum 1b to looped/cyclic peptides of protein N of SARS-CoV Urbani [1] | Binding of serum 2 to linear peptides of protein N of SARS-CoV Urbani [1] | Binding of serum 2 to looped/cyclic peptides of protein N of SARS-CoV Urbani [1] | Binding of serum 6 to linear peptides of protein N of SARS-CoV Urbani [1] | Binding of serum 6 to looped/cyclic peptides of protein N of SARS-CoV Urbani [1] | Binding of serum 37 to linear peptides of protein N of SARS-CoV Urbani [1] | Binding of serum 37 to looped/cyclic peptides of protein N of SARS-CoV Urbani [1] | Binding of serum 62 to linear peptides of protein N of SARS-CoV Urbani [1] | Binding of serum 62 to looped/cyclic peptides of protein N of SARS-CoV Urbani [1] | Binding of serum London to linear peptides of protein N of SARS-CoV Urbani [1] | Binding of serum London to looped/cyclic peptides of protein N of SARS-CoV Urbani [1] | Binding of serum SARS-green to linear peptides of protein N of SARS-CoV Urbani [1] | Binding of serum SARS-green to looped/cyclic peptides of protein N of SARS-CoV Urbani [1] | Binding of serum SARS-yellow to linear peptides of protein N of SARS-CoV Urbani [1] | Binding of serum SARS-yellow to looped/cyclic peptides of protein N of SARS-CoV Urbani [1] | Binding of antibody 03-018 to linear peptides of the N protein of SARS-CoV Urbani [4] | Binding of antibody 03-018 to looped/cyclic peptides of the N protein of SARS-CoV Urbani [4] | further results
1 | IRQGTDYKHWPQIAQ | 0.2 | 0.4 | 0.1 | 0.2 | 0.2 | 0.4 | 0.2 | 0.2 | 0.7 | 0.6 | 0.6 | 0.6 | 0.9 | 0.4 | 0.3 | 0.3 | 0.6 | 0.4 | 0.1 | 0.2 | Binding of Control Serum Blood-Bank to Looped peptides [2]: 0.5; Binding of Control serum Blood-bank to linear peptides [2]: 0.7; Binding of Control serum LUMC to linear peptides [2]: 0.7; Binding of Control serum LUMC to looped peptides [2]: 0.6; Binding of a rabbit serum to linear peptides of protein N of SARS-CoV Urbani (Rabbit serum linear peptides) [3]: 0.1; Binding of a rabbit serum to looped/cyclic peptides of protein N of SARS-CoV Urbani (Rabbit serum looped peptides) [3]: 0.3
2 | EAQPLPQRQKKQPTV | 0.2 | 0.2 | 0.2 | 0.1 | 0.3 | 0.2 | 0.3 | 0.2 | 0.7 | 0.3 | 0.7 | 0.2 | 1.2 | 0.3 | 0.4 | 0.2 | 1.3 | 0.5 | 0.1 | 0.2 | Control Serum Blood-Bank Looped peptides [2]: 0.4; Control serum Blood-bank linear peptides [2]: 0.6; Control serum LUMC linear peptides [2]: 0.7; Control serum LUMC looped peptides [2]: 0.4; Binding of a rabbit serum to linear peptides of protein N of SARS-CoV Urbani (Rabbit serum linear peptides) [3]: 0.1; Binding of a rabbit serum to looped/cyclic peptides of protein N of SARS-CoV Urbani (Rabbit serum looped peptides) [3]: 0.0
3 | YNVTQAFGRRGPEQT |  | 0.3 |  | 0.2 |  | 0.3 |  | 0.1 |  | 0.5 |  | 0.3 |  | 0.3 |  | 0.2 |  | 0.3 | 0.1 | 0.2 | Binding of serum 1a to linear peptide (PEPSCAN-ELISA) [1]: 0.3; Binding of serum 1b to linear peptide (PEPSCAN-ELISA) [1]: 0.1; Binding of serum 2 to linear peptide (PEPSCAN-ELISA) [1]: 0.2; Binding of serum 6 to linear peptide (PEPSCAN-ELISA) [1]: 0.2; Binding of serum 37 to linear peptide (PEPSCAN-ELISA) [1]: 0.7; Binding of serum 62 to linear peptide (PEPSCAN-ELISA) [1]: 0.7; Binding of serum London to linear peptide (PEPSCAN-ELISA) [1]: 0.5; Binding of serum SARS-green to linear peptide (PEPSCAN-ELISA) [1]: 0.6; Binding of serum SARS-yellow to linear peptide (PEPSCAN-ELISA) [1]: 0.6; Binding of Control Serum Blood-Bank to Looped peptides [2]: 0.5; Binding of Control serum Blood-bank to linear peptides [2]: 0.7; Binding of Control serum LUMC to linear peptides [2]: 0.6; Binding of Control serum LUMC to looped peptides [2]: 0.5; Recognition of the peptide by the rabbit serum [3]: recognized
4 | KKQPTVTLLPAADMD | 0.3 | 0.3 | 0.2 | 0.2 | 0.2 | 0.2 | 0.2 | 0.1 | 1.0 | 0.4 | 0.7 | 0.2 | 0.6 | 0.2 | 1.3 | 0.7 | 0.5 | 0.2 | 0.1 | 0.2 | Control Serum Blood-Bank Looped peptides [2]: 0.3; Control serum Blood-bank linear peptides [2]: 0.7; Control serum LUMC linear peptides [2]: 0.6; Control serum LUMC looped peptides [2]: 0.3; Binding of a rabbit serum to linear peptides of protein N of SARS-CoV Urbani (Rabbit serum linear peptides) [3]: 0.1; Binding of a rabbit serum to looped/cyclic peptides of protein N of SARS-CoV Urbani (Rabbit serum looped peptides) [3]: 0.2
5 | QYNVTQAFGRRGPEQ |  | 0.4 |  | 0.2 |  | 0.4 |  | 0.4 |  | 0.7 |  | 0.6 |  | 0.5 |  | 0.4 |  | 0.5 | 0.1 | 0.3 | Binding of serum 1a to linear peptide (PEPSCAN-ELISA) [1]: 0.3; Binding of serum 1b to linear peptide (PEPSCAN-ELISA) [1]: 0.1; Binding of serum 2 to linear peptide (PEPSCAN-ELISA) [1]: 0.1; Binding of serum 6 to linear peptide (PEPSCAN-ELISA) [1]: 0.2; Binding of serum 37 to linear peptide (PEPSCAN-ELISA) [1]: 0.6; Binding of serum 62 to linear peptide (PEPSCAN-ELISA) [1]: 0.6; Binding of serum London to linear peptide (PEPSCAN-ELISA) [1]: 0.4; Binding of serum SARS-green to linear peptide (PEPSCAN-ELISA) [1]: 0.5; Binding of serum SARS-yellow to linear peptide (PEPSCAN-ELISA) [1]: 0.6; Binding of Control Serum Blood-Bank to Looped peptides [2]: 0.8; Binding of Control serum Blood-bank to linear peptides [2]: 0.7; Binding of Control serum LUMC to linear peptides [2]: 0.6; Binding of Control serum LUMC to looped peptides [2]: 0.8; Recognition of the peptide by the rabbit serum [3]: recognized
